Measured values published in PubChem BioAssay AID2060618 (Molecular Pharmacology Branch, DTP, NCI, 2025).
Values belong to the compound of their own block, whether it stands above or below them.

Test system: 454973-116-R2-J3-PDC spheroids, percent test/control viability
Experiment: Anticancer human tumor 454973-116-R2-J3-PDC patient-derived pancreatic carcinoma cell line growth inhibition [CLK]
Conditions: spheroids with HUVEC and MSC; for IC50: curve of first compound; for viability, T/C: stronger effect = lower value
How it was run: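 Patient-derived tumor cells grown as complex spheroids with HUVEC endothelial cells and mesenchymal stem cells, treated with drug combinations. Concentrations descend in half-log steps from near clinical Cmax, or from 10 microM if Cmax unknown.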

[1] = second compound 0.0316 µM, first compound 0.0316 µM
[2] = second compound 0.0316 µM, first compound 0.1 µM
[3] = second compound 0.0316 µM, first compound 0.316 µM
[4] = second compound 0.0316 µM, first compound 1 µM
[5] = second compound 0.0316 µM, first compound 3.16 µM
[6] = second compound 0.0316 µM, first compound 10 µM
[7] = second compound 0.1 µM, first compound 0.0316 µM
[8] = second compound 0.1 µM, first compound 0.1 µM
[9] = second compound 0.1 µM, first compound 0.316 µM
[10] = second compound 0.1 µM, first compound 1 µM
[11] = second compound 0.1 µM, first compound 3.16 µM
[12] = second compound 0.1 µM, first compound 10 µM
[13] = second compound 0.316 µM, first compound 0.0316 µM
[14] = second compound 0.316 µM, first compound 0.1 µM
[15] = second compound 0.316 µM, first compound 0.316 µM
[16] = second compound 0.316 µM, first compound 1 µM
[17] = second compound 0.316 µM, first compound 3.16 µM
[18] = second compound 0.316 µM, first compound 10 µM
[19] = second compound 1 µM, first compound 0.0316 µM
[20] = second compound 1 µM, first compound 0.1 µM
[21] = second compound 1 µM, first compound 0.316 µM
[22] = second compound 1 µM, first compound 1 µM
[23] = second compound 1 µM, first compound 3.16 µM
[24] = second compound 1 µM, first compound 10 µM
[25] = second compound 3.16 µM, first compound 0.0316 µM
[26] = second compound 3.16 µM, first compound 0.1 µM
[27] = second compound 3.16 µM, first compound 0.316 µM
[28] = second compound 3.16 µM, first compound 1 µM
[29] = second compound 3.16 µM, first compound 3.16 µM
[30] = second compound 3.16 µM, first compound 10 µM
[31] = second compound 10 µM, first compound 0.0316 µM
[32] = second compound 10 µM, first compound 0.1 µM
[33] = second compound 10 µM, first compound 0.316 µM
[34] = second compound 10 µM, first compound 1 µM
[35] = second compound 10 µM, first compound 3.16 µM
[36] = second compound 10 µM, first compound 10 µM
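Note: spheroids exposed to compounds for 7 days before readout.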

- IC50 (second compound 0.0316 µM): 6280 nM
- IC50 (second compound 0.1 µM): 7330 nM
- IC50 (second compound 0.316 µM): < 31.6 nM
- IC50 (second compound 1 µM): < 31.6 nM
- IC50 (second compound 3.16 µM): < 31.6 nM
- IC50 (second compound 10 µM): < 31.6 nM
SMILES: CC1COCCN1c1cc(C2(S(C)(=N)=O)CC2)nc(-c2ccnc3[nH]ccc23)n1 (centres undefined) + CNC(=O)c1ccc(Nc2nc(OC3CCCC3)c3c(-c4ccc5nc(C)oc5c4)c[nH]c3n2)c(OC)c1
- viability, T/C [1]: 96.7%
- viability, T/C [2]: 103%
- viability, T/C [3]: 97.8%
- viability, T/C [4]: 101%
- viability, T/C [5]: 73.3%
- viability, T/C [6]: 34.2%
- viability, T/C [7]: 103%
- viability, T/C [8]: 97.5%
- viability, T/C [9]: 94.7%
- viability, T/C [10]: 93.6%
- viability, T/C [11]: 84.4%
- viability, T/C [12]: 37.4%
- viability, T/C [13]: 37%
- viability, T/C [14]: 43.9%
- viability, T/C [15]: 45.1%
- viability, T/C [16]: 40.1%
- viability, T/C [17]: 48.3%
- viability, T/C [18]: 29.5%
- viability, T/C [19]: 27.9%
- viability, T/C [20]: 30.9%
- viability, T/C [21]: 30.5%
- viability, T/C [22]: 27.3%
- viability, T/C [23]: 25.3%
- viability, T/C [24]: 15.8%
- viability, T/C [25]: 30.4%
- viability, T/C [26]: 24.3%
- viability, T/C [27]: 28.9%
- viability, T/C [28]: 28.1%
- viability, T/C [29]: 19.3%
- viability, T/C [30]: 12.3%
- viability, T/C [31]: 29.8%
- viability, T/C [32]: 27.3%
- viability, T/C [33]: 27.5%
- viability, T/C [34]: 25.5%
- viability, T/C [35]: 17.4%
- viability, T/C [36]: 10.3%

- IC50 (second compound 0.0316 µM): > 10000 nM
- IC50 (second compound 0.1 µM): > 10000 nM
- IC50 (second compound 0.316 µM): < 31.6 nM
- IC50 (second compound 1 µM): < 31.6 nM
- IC50 (second compound 3.16 µM): < 31.6 nM
- IC50 (second compound 10 µM): < 31.6 nM
SMILES: O=C(c1cc(Cc2n[nH]c(=O)c3ccccc23)ccc1F)N1CCN(C(=O)C2CC2)CC1 + CNC(=O)c1ccc(Nc2nc(OC3CCCC3)c3c(-c4ccc5nc(C)oc5c4)c[nH]c3n2)c(OC)c1
- viability, T/C [1]: 94.7%
- viability, T/C [2]: 107%
- viability, T/C [3]: 98.4%
- viability, T/C [4]: 104%
- viability, T/C [5]: 94.6%
- viability, T/C [6]: 75.9%
- viability, T/C [7]: 101%
- viability, T/C [8]: 105%
- viability, T/C [9]: 95.8%
- viability, T/C [10]: 101%
- viability, T/C [11]: 92.8%
- viability, T/C [12]: 77.4%
- viability, T/C [13]: 39.6%
- viability, T/C [14]: 52.1%
- viability, T/C [15]: 40.9%
- viability, T/C [16]: 51.4%
- viability, T/C [17]: 47.8%
- viability, T/C [18]: 40.3%
- viability, T/C [19]: 36.5%
- viability, T/C [20]: 33.9%
- viability, T/C [21]: 31.4%
- viability, T/C [22]: 33.3%
- viability, T/C [23]: 29.9%
- viability, T/C [24]: 24.3%
- viability, T/C [25]: 32.3%
- viability, T/C [26]: 33.2%
- viability, T/C [27]: 35.1%
- viability, T/C [28]: 32%
- viability, T/C [29]: 29.4%
- viability, T/C [30]: 22.5%
- viability, T/C [31]: 26.3%
- viability, T/C [32]: 33.6%
- viability, T/C [33]: 30.4%
- viability, T/C [34]: 29.4%
- viability, T/C [35]: 28.2%
- viability, T/C [36]: 23.8%
